Where two headings read alike, the source gives them in different places.
Legend:
Format in all cases: cell-based
[1] = system: alpha-smooth muscle actin (α-SMA); experiment: Inhibition of TGF-β induced expression of alpha-smooth muscle actin (α-SMA) in CFSC cells (western blot); details: compound at 10 μM, TGF-β (10 ng/mL), 24 hours, band intensity vs TGF-β only
Method in brief: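 CFSC hepatic stellate cells in serum-free DMEM treated 24 h at 37 °C with compound at 10 μM plus TGF-β (10 ng/mL). α-SMA measured by Western blot with β-actin, ECL detection, densitometry. Percent inhibition is decrease in band intensity versus TGF-β-only cells.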

[2] = system: MDA-MB-231 (breast cancer); experiment: Antiproliferative activity (CCK-8 cell viability), MDA-MB-231; details: Homo sapiens, 72 h, read-out: Antiproliferative activity in cancerous cells, MDA-MB-231 (inhibition of cell growth); for inhibition at 3.3 µM: Compound concentration: 3.3 μM; for inhibition at 10 µM: Compound concentration: 10 μM; for inhibition at 30 µM: Compound concentration: 30 μM
Method in brief: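 In this CCK-8 viability assay, MDA-MB-231 cells maintained in Dulbecco's modified Eagle's medium containing 10% fetal bovine serum were placed in 96-well plates (2,000-5,000 cells/well) and treated with compound for 72 h at 37° C. A 4 h incubation with 10 μL CCK-8 followed, plates were read at 450 nm, and viability was expressed against DMSO vehicle wells across replicates.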

[3] = system: HepG2 (liver cancer); experiment: Antiproliferative activity (CCK-8 cell viability), HepG2; details: Homo sapiens, 72 h; for inhibition at 3.3 µM: Compound concentration: 3.3 μM; for inhibition at 10 µM: Compound concentration: 10 μM; for inhibition at 30 µM: Compound concentration: 30 μM
Method in brief: (§1)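 Cells were seeded at 2,000-5,000/well (HeLa in MEM, HepG2 and SW480 in DMEM, A549 in F-12K, all with 10% FBS) and treated with compound at 3.3, 10 or 30 μM for 72 h at 37° C. CCK-8 was added for 4 h, absorbance was read at 450 nm, and viability was expressed relative to DMSO-treated wells.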

[4] = system: SW480 (colon cancer); experiment: Antiproliferative activity (CCK-8 cell viability), SW480; details: Homo sapiens, 72 h; for inhibition at 3.3 µM: Compound concentration: 3.3 μM; for inhibition at 10 µM: Compound concentration: 10 μM; for inhibition at 30 µM: Compound concentration: 30 μM
Method in brief: as §1

[5] = system: B16F10 (malignant melanoma); experiment: Antiproliferative activity (CCK-8 cell viability), B16F10; details: Mus musculus, 72 h, read-out: Antiproliferative activity in cancerous cells, B16F10 (inhibition of cell growth); for inhibition at 3.3 µM: B16-F10, Compound concentration: 3.3 μM; for inhibition at 10 µM: B16-F10, Compound concentration: 10 μM; for inhibition at 30 µM: B16-F10, Compound concentration: 30 μM
Method in brief: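 Attached B16F10 cells in 96-well plates were incubated with compound at 37° C for 72 h, followed by 10 μL CCK-8 reagent per well and a further 4 h incubation. A multi-well plate reader measured absorbance at 450 nm. Percent viability across replicates was calculated against DMSO vehicle-treated cells.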

[6] = system: A431 (epidermoid carcinoma); experiment: Antiproliferative activity (CCK-8 cell viability), A431; details: Homo sapiens, 72 h, read-out: Antiproliferative activity in cancerous cells, A431 (inhibition of cell growth); for inhibition at 3.3 µM: A-431, Compound concentration: 3.3 μM; for inhibition at 10 µM: A-431, Compound concentration: 10 μM; for inhibition at 30 µM: A-431, Compound concentration: 30 μM
Method in brief: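 Cell viability of compound-treated A431 cells was measured with a Cell Counting Kit-8. Each well received 10 μL of CCK-8 after 72 h of compound exposure, followed by 4 h incubation at 37° C. and a 450 nm plate-reader measurement. Percent viability was calculated relative to DMSO controls across replicates.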

[7] = system: A549 (lung adenocarcinoma); experiment: Antiproliferative activity (CCK-8 cell viability), A549; details: Homo sapiens, 72 h, read-out: Antiproliferative activity in cancerous cells, A549 (inhibition of cell growth); for inhibition at 3.3 µM: Compound concentration: 3.3 μM; for inhibition at 10 µM: Compound concentration: 10 μM; for inhibition at 30 µM: Compound concentration: 30 μM
Method in brief: as §1

[8] = system: HeLa (cervical cancer); experiment: Antiproliferative activity (CCK-8 cell viability), HeLa; details: Homo sapiens, 72 h, read-out: Antiproliferative activity in cancerous cells, HELA (inhibition of cell growth); for inhibition at 3.3 µM: Compound concentration: 3.3 μM; for inhibition at 10 µM: Compound concentration: 10 μM; for inhibition at 30 µM: Compound concentration: 30 μM
Method in brief: as §1

[9] = read-out: Antiproliferative activity in cancerous cells, HepG2 (inhibition of cell growth)
[10] = read-out: Antiproliferative activity in cancerous cells, SW480 (inhibition of cell growth)

`COc1ccc2c(c1)/C(=C\c1ccc(Oc3ccc(F)cc3)cc1)C=C2CC(=O)O` [C2, (Z)-2-(1-(4-(4-Fluorophenoxy)benzylidene)-6-methoxy-1H-inden-3-yl)acetic acid] was tested, and the inhibition at 10 µM [1] was over 80%, the inhibition at 3.3 µM [2] was at least 50% and the inhibition at 10 µM [2] was at least 50%. It also gave an inhibition at 3.3 µM [3, 9] of 30 to 50%, an inhibition at 10 µM [3, 9] of 30 to 50% and an inhibition at 3.3 µM [4, 10] of at least 50%. For the same compound, the inhibition at 10 µM [4, 10] was 30 to 50%, the inhibition at 3.3 µM [5] was under 30% and the inhibition at 10 µM [5] was at least 50%. It also gave an inhibition at 3.3 µM [6] of 30 to 50%, an inhibition at 10 µM [6] of at least 50% and an inhibition at 3.3 µM [7] of under 30%. The inhibition at 10 µM [7] was under 30%, the inhibition at 3.3 µM [8] was 30 to 50% and the inhibition at 10 µM [8] was at least 50%.

With `CC1=C(CC(=O)O)c2c(F)cccc2/C1=C\c1cccc(COc2ccccc2)c1` [B13, (Z)-2-(4-Fluoro-2-methyl-1-(3-(phenoxymethyl)benzylidene)-1H-inden-3-yl)-acetic acid] the inhibition at 10 µM [1] was under 30%, the inhibition at 3.3 µM [2] was at least 50% and the inhibition at 10 µM [2] was at least 50%. For the same compound, the inhibition at 3.3 µM [3, 9] was under 30%, the inhibition at 10 µM [3, 9] was 30 to 50% and the inhibition at 30 µM ([3]; read-out: Antiproliferative activity in cancerous cells, HepG2) was 30 to 50%. It also gave an inhibition at 3.3 µM [4, 10] of under 30%, an inhibition at 10 µM [4, 10] of under 30% and an inhibition at 30 µM ([4]; read-out: Antiproliferative activity in cancerous cells, SW480) of 30 to 50%. The inhibition at 3.3 µM [5] was 30 to 50%, the inhibition at 10 µM [5] was at least 50% and the inhibition at 3.3 µM [6] was under 30%. The inhibition at 10 µM [6] was 30 to 50%, the inhibition at 3.3 µM [7] was 30 to 50% and the inhibition at 10 µM [7] was 30 to 50%. For the same compound, the inhibition at 3.3 µM [8] was 30 to 50% and the inhibition at 10 µM [8] was at least 50%.

Work on `CC1=C(CC(=O)O)c2c(F)cc(F)cc2/C1=C\c1cccc(C(F)(F)F)c1` [D6, (Z)-2-(4,6-Difluoro-2-methyl-1-(3-(trifluoromethyl)benzylidene)-1H-inden-3-yl)-acetic acid] yielded an inhibition at 10 µM [1] of under 30%, an inhibition at 3.3 µM [2] of under 30% and an inhibition at 10 µM [2] of under 30%. For the same compound, the inhibition at 30 µM [2] was at least 50%, the inhibition at 3.3 µM [3, 9] was under 30% and the inhibition at 10 µM [3, 9] was under 30%. The inhibition at 30 µM [3, 9] was 30 to 50%, the inhibition at 3.3 µM [4, 10] was under 30% and the inhibition at 10 µM [4, 10] was under 30%. It also gave an inhibition at 30 µM [4, 10] of 30 to 50%, an inhibition at 3.3 µM [5] of under 30% and an inhibition at 10 µM [5] of under 30%. The inhibition at 30 µM [5] was under 30%, the inhibition at 3.3 µM [6] was under 30% and the inhibition at 10 µM [6] was under 30%. For the same compound, the inhibition at 30 µM [6] was under 30%, the inhibition at 3.3 µM [7] was under 30% and the inhibition at 10 µM [7] was under 30%. The inhibition at 30 µM [7] was at least 50%, the inhibition at 3.3 µM [8] was under 30% and the inhibition at 10 µM [8] was under 30%. The inhibition at 30 µM [8] was at least 50%.

Work on `CC1=C(Cc2noc(=O)[nH]2)c2cc(F)ccc2/C1=C\c1cccc(Oc2ccccc2)c1` [C32, (Z)-3-((5-Fluoro-2-methyl-1-(3-phenoxybenzylidene)-1H-inden-3-yl)methyl)-1,2,4-oxadiazol-5(4H)-one] yielded an inhibition at 10 µM [1] of under 30%, an inhibition at 3.3 µM [2] of at least 50% and an inhibition at 10 µM [2] of at least 50%. For the same compound, the inhibition at 3.3 µM [3, 9] was under 30%, the inhibition at 10 µM [3, 9] was under 30% and the inhibition at 3.3 µM [4, 10] was under 30%. The inhibition at 10 µM [4, 10] was under 30%, the inhibition at 3.3 µM [5] was under 30% and the inhibition at 10 µM [5] was 30 to 50%. It also gave an inhibition at 3.3 µM [6] of under 30%, an inhibition at 10 µM [6] of under 30% and an inhibition at 3.3 µM [7] of under 30%. It also gave an inhibition at 10 µM [7] of under 30%, an inhibition at 3.3 µM [8] of under 30% and an inhibition at 10 µM [8] of 30 to 50%.

In the case of `CC1=C(CC(=O)O)c2cc(F)ccc2/C1=C/c1cccc(COc2ccc(F)cc2F)c1` [E6, (E)-2-(1-(3-((2,4-Difluorophenoxy)methyl)benzylidene)-5-fluoro-2-methyl-1H-inden-3-yl)acetic acid], the inhibition at 10 µM [1] is reported as over 80%, the inhibition at 3.3 µM [2] is reported as 30 to 50% and the inhibition at 10 µM [2] is reported as 30 to 50%. It also gave an inhibition at 30 µM [2] of at least 50%, an inhibition at 3.3 µM [3, 9] of under 30% and an inhibition at 10 µM [3, 9] of under 30%. The inhibition at 30 µM [3, 9] was at least 50%, the inhibition at 3.3 µM [4, 10] was under 30% and the inhibition at 10 µM [4, 10] was 30 to 50%. For the same compound, the inhibition at 30 µM [4, 10] was at least 50%, the inhibition at 3.3 µM [5] was under 30% and the inhibition at 10 µM [5] was 30 to 50%. For the same compound, the inhibition at 30 µM [5] was at least 50%, the inhibition at 3.3 µM [6] was under 30% and the inhibition at 10 µM [6] was 30 to 50%. The inhibition at 30 µM [6] was at least 50%, the inhibition at 3.3 µM [7] was under 30% and the inhibition at 10 µM [7] was under 30%. It also gave an inhibition at 30 µM [7] of at least 50%, an inhibition at 3.3 µM [8] of under 30% and an inhibition at 10 µM [8] of under 30%. The inhibition at 30 µM [8] was at least 50%.

In the case of `CC1=C(CC(=O)NCCN(C)C)c2cc(F)ccc2/C1=C\c1ccc(Oc2ccc(F)cc2)cc1` [C38, (Z)-N-(2-(Dimethylamino)ethyl)-2-(5-fluoro-1-(4-(4-fluorophenoxy)benzylidene)-2-methyl-1H-inden-3-yl)acetamide], the inhibition at 10 µM [1] is reported as over 80%, the inhibition at 3.3 µM [2] is reported as under 30% and the inhibition at 10 µM [2] is reported as at least 50%. It also gave an inhibition at 3.3 µM [3, 9] of under 30%, an inhibition at 10 µM [3, 9] of at least 50% and an inhibition at 3.3 µM [4, 10] of under 30%. For the same compound, the inhibition at 10 µM [4, 10] was at least 50%, the inhibition at 3.3 µM [5] was at least 50% and the inhibition at 10 µM [5] was at least 50%. For the same compound, the inhibition at 3.3 µM [6] was under 30%, the inhibition at 10 µM [6] was at least 50% and the inhibition at 3.3 µM [7] was at least 50%. It also gave an inhibition at 10 µM [7] of at least 50%, an inhibition at 3.3 µM [8] of under 30% and an inhibition at 10 µM [8] of at least 50%.

Compound `O=C(O)CC1=C(CC2CCCC2)/C(=C/c2ccc(Oc3ccc(F)cc3)cc2)c2ccc(F)cc21` [C7, (Z)-2-(2-(Cyclopentylmethyl)-5-fluoro-1-(4-(4-fluorophenoxy)benzylidene)-1H-inden-3-yl)acetic acid] has an inhibition at 10 µM [1] of over 80%, an inhibition at 3.3 µM [2] of at least 50% and an inhibition at 10 µM [2] of at least 50%. For the same compound, the inhibition at 3.3 µM [3, 9] was 30 to 50%, the inhibition at 10 µM [3, 9] was at least 50% and the inhibition at 3.3 µM [4, 10] was at least 50%. The inhibition at 10 µM [4, 10] was at least 50%, the inhibition at 3.3 µM [5] was at least 50% and the inhibition at 10 µM [5] was at least 50%. It also gave an inhibition at 3.3 µM [6] of at least 50%, an inhibition at 10 µM [6] of at least 50% and an inhibition at 3.3 µM [7] of at least 50%. The inhibition at 10 µM [7] was at least 50%, the inhibition at 3.3 µM [8] was at least 50% and the inhibition at 10 µM [8] was at least 50%.

Source: US20260184663A1, “INDENE COMPOUNDS, PHARMACEUTICAL COMPOSITIONS THEREOF, AND THEIR THERAPEUTIC APPLICATIONS” (NucMito Pharmaceuticals co. Ltd., priority 2022, published 2026)
